Where two headings read alike, the source gives them in different places.
Legend:
NAMPT [1] = biological target: T1, NAMPT (Homo sapiens, UniProt P43490); design: His-tag; made in house; host or cells: E. coli BL21-CodonPlus (DE3)-RIL; conditions: previous study of the authors ref 7; read-out: NAMPT inhibition activity IC50; cited from earlier work
HepG2 cells [2] = test: Cell counting kit-8 (CCK-8) cell viability assay in HepG2; format: cell-based, human; conditions: HepG2, 48 hours treatment, read-out: CCK-8 assay in HepG2: IC50
Procedure: (§1) Cellc ount ing k it-8 (CCK-8) assa y
Cell vi ability was de termine d by ou r previ ous method9 usi ng the Cell Counting Kit-8 (CCK -8, Dojindo, Ja pa n). In hu man he pa tocellu lar carcinom a cell line HepG 2, cells were seede d in 96-well plate and starve d for ove r 12 h with se rum-free DMEM at 60~ 70% conf lue nc y, the n trea ted wit h com pounds or ve hicle for 24 h to 72 h accor ding to expe riment requi rement s. […]
(§2) 10 μl CCK-8 sol ution was adde d to the cul ture medium and inc ub ated at 37 °C for 1 h. Th e absor banc e at 450 nm (A450) was de tected by a pl ate reade r. Each e xperi ment w as carr ied out i n t riplic ate i n thr ee r eplic ate w ells.

HepG2 cells [3] = test: Sulforhodamine B protein staining (SRB) assay in HepG2; format: cell-based, human; conditions: Homo sapiens
Procedure: (§3) Sulfor hod am ine B p rotei n st ai ning (SRB) assay
(§4) Cell pr oliferat ion was eva lua ted by sul for hod amine B pr ot ein st aini ng (SRB) assa y10-12.
(§5) Briefly, cel ls were se ede d int o 96-well pl ates, cul tur ed overni ght , and trea ted with correspond ing com poun ds for 72 h. Cells were the n fixe d with 10% trichl or oa cetic aci d and st ained with sul for hoda mine B (Sigm a). Sul for hoda mine B in the cells was di sso lved in 10 mmol/L Tris-HCl and was measured at 515 nm usi ng a multiw ell spect ropho tometer (VERSA max, Mol ecul ar Devi ces, Sunnyva le, CA). The inhi bi tion rat e on cell pr olif eratio n was cal culated for each well as (A515contr ol cells-A 515tr eated cells)/A515contr ol cells×100 % (A515:
(§6) OD va lue at 515 nm ). The averag e IC50 va lue s were de termine d by Logit method from at leas t t hr eei nde pe nde nt test s.

NAMPT [4] = biological target: T1, NAMPT; test: Cellular thermal shift assay (CETSA / […]) in intact HepG2 cells; format: cell-based; design: endogenous in cells; host or cells: HepG2; conditions: for CETSA target binding of NAMPT in intact cell: intact HepG2 cells, 10 μM, 3 h
NAMPT H191A mutant = biological target: T2, NAMPT H191A mutant (Homo sapiens, UniProt P43490, H191A); test: NAMPT activity assay, H191A mutant; format: biochemical; conditions: for IC50: same condition as wild-type, read-out: IC50 against H191A mutant
T2 construct: His-tag; made in house; host or cells: E. coli BL21-CodonPlus (DE3)-RIL

NAMPT [5] = biological target: T1, NAMPT; test: Cellular thermal shift assay (CETSA / […]) in HepG2 cell lysate; format: binding; design: endogenous in cells; host or cells: HepG2; conditions: HepG2 cell lysate, 100 μM
A549 cells = test: SRB assay in A549; format: cell-based, human; conditions: Homo sapiens; A549, SRB, 10-fold concentration gradient; read-out: anti-proliferation IC50, initial screen
Procedure: as §3, §4, §5, §6

NAMPT [6] = biological target: T1, NAMPT; test: NAMPT activity assay by fluorescence of NMN derivative (HTS system), IC50 determination; format: biochemical; design: His-tag; made in house; host or cells: E. coli BL21-CodonPlus (DE3)-RIL
HCT116 cells = test: SRB assay in HCT116; format: cell-based; conditions: Homo sapiens, HCT-116; HCT116, SRB, 10-fold concentration gradient; read-out: anti-proliferation IC50, initial screen
Procedure: as §3, §4, §5, §6

NAMPT A244S mutant = biological target: T3, NAMPT A244S mutant (Homo sapiens, UniProt P43490, A244S); test: NAMPT activity assay, A244S mutant; format: biochemical; conditions: for IC50: same condition as wild-type, read-out: IC50 against A244S mutant
T3 construct: His-tag; made in house; host or cells: E. coli BL21-CodonPlus (DE3)-RIL

Huh7-C cells = test: CCK-8 assay in stem-like human hepatoma cell line Huh7-C; format: cell-based; conditions: Huh7-C, treated 60 h, read-out: CCK-8 assay in Huh7-C: IC50
Procedure: as §1
Cell vi ability was de termine d by ou r previ ous method9 usi ng the Cell Counting Kit-8 (CCK -8, […]
as §2

NAMPT I309Y mutant = biological target: T4, NAMPT I309Y mutant (Homo sapiens, UniProt P43490, I309Y); test: NAMPT activity assay, I309Y mutant; format: biochemical; conditions: for IC50: same condition as wild-type, read-out: IC50 against I309Y mutant
T4 construct: His-tag; made in house; host or cells: E. coli BL21-CodonPlus (DE3)-RIL

NAD level of HepG2 cells = test: Cellular NAD level, spectrophotometric enzymatic cycling assay; format: cell-based, human; conditions: HepG2, even at 100 μM, 24 hours
Source text: F0 was the average d fluo rescen ce of si x backgr ound control s, repres ent ing zero activ ity from a si mul ated enz ym e reaction wit h on ly NAMP T but no NAM and com pound; F100 % was the average d fluorescen ce of si x ref erence cont rols, repr ese nt ing 100% activ ity from int act enz ym e reaction w ithou t com pound p ert ur bation.
Compounds with Activ ity% less tha n 40% were consi dered as inhi bi tor s and subj ect ed to a secondary screen inhi bition valida tion, in whi ch anot her backgr oun d cont rol (FC0), a si mul ated enz ym e reaction with NAMP Tand com pound but no NAM, was int roduced to elimina te the di rec t and /or ind irect inf lue nc e fro m compou nd. At thi s st age , the Activ ity% was cal culated accor ding t o e qua tion ( 2) :
In the screeni ng, the si gna l-to- noi se (S/N) rat io was cal cul ated usi ng the equa tion: (Mean signal -Mean backgr oun d) / SD backgr oun d4. Coe fficient s of vari atio n (CV) were the ratio of SD to mean. The Z ’f act or w as de term ine d by e qua tion (3) 5:
Z' −= (3)1−3(S Dhi ghsigna l+SDlowsigna l)
Mean hi gh signa l Meanlow signa l
Determ inat ion of IC50 for NAMPT inhi bitor s […]
vari ous con cent ration s were adde d int o 96-well pl ate. The pl ate was inc uba ted at 37 °C for 5 min after addition of 16.5 μl react ion buf fer cont aini ng N AMP T. The enz ym e reactions were ini tiated by 4.5 μl NAM (1.1 1 μM) follow ing NMN measurem ent as de scri bed above . […]
Cellul ar level of NAD was measured by spe ctrophot om etric enz ym atic cyc ling assa y, as de scri bed pr evi ousl y6-8. […]
Cell vi ability was de termine d by ou r previ ous method9 usi ng the Cell Counting Kit-8 (CCK -8, Dojindo, Ja pa n). […] Th e absor banc e at 450 nm (A450) was de tected by a pl ate reade r. […]
Briefly, cel ls were se ede d int o 96-well pl ates, cul tur ed overni ght , and trea ted with correspond ing com poun ds for 72 h. […] Sul for hoda mine B in the cells was di sso lved in 10 mmol/L Tris-HCl and was measured at 515 nm usi ng a multiw ell spect ropho tometer […]

[7] = HepG2, 72 h, HepG2, second test, 2-fold concentration gradient, 72 hours, read-out: SRB assay in HepG2: IC50
[8] = HepG2, HepG2, SRB, 10-fold concentration gradient, read-out: anti-proliferation IC50, initial screen
[9] = recombinant human NAMPT, mean ± s.e., read-out: NAMPT IC50
[10] = wild type, run beside the mutants, read-out: IC50 against wild-type NAMPT (mutagenesis study)

T4 sequence (P43490 whole entry I309Y): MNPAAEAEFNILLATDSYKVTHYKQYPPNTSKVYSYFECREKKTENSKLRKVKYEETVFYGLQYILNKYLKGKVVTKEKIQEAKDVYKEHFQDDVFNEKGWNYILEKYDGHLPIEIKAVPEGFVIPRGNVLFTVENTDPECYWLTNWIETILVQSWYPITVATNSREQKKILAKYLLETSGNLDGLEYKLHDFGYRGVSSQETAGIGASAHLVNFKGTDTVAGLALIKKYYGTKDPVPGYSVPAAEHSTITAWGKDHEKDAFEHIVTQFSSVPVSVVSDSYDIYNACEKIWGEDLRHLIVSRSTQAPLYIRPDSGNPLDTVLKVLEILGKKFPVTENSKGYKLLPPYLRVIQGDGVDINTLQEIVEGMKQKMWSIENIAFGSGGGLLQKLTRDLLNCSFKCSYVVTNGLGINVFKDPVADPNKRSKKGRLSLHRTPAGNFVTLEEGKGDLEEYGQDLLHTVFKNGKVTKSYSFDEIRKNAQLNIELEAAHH
T1 sequence (P43490 whole entry): as the sequence (P43490 whole entry I309Y) above, with Y309I counted along it
T3 sequence (P43490 whole entry A244S): as the sequence (P43490 whole entry I309Y) above, with A244S, Y309I counted along it
T2 sequence (P43490 whole entry H191A): as the sequence (P43490 whole entry I309Y) above, with H191A, Y309I counted along it

Compound: O=C(OC[C@H]1O[C@@H](OC(=O)c2cc(O)c(O)c(OC(=O)c3cc(O)c(O)c(O)c3)c2)[C@H](OC(=O)c2cc(O)c(O)c(OC(=O)c3cc(O)c(O)c(O)c3)c2)[C@@H](OC(=O)c2cc(O)c(O)c(OC(=O)c3cc(O)c(O)c(O)c3)c2)[C@@H]1OC(=O)c1cc(O)c(O)c(OC(=O)c2cc(O)c(O)c(O)c2)c1)c1cc(O)c(O)c(OC(=O)c2cc(O)c(O)c(O)c2)c1 [gallotannin]
- IC50 (NAMPT [1]): 1.3 ± 0.1 µM

Compound: CC(C)(C)OC(=O)N1CCN(S(=O)(=O)c2ccc(NC(=S)NCc3cccnc3)cc2)CC1 [MS1]
- IC50 (HepG2 cells [2]): 0.326 µM
- IC50 (HepG2 cells [2]; Homo sapiens, HepG2, 48 h): 0.326 ± 0.0733 µM
- IC50 (HepG2 cells [3]; [7]): ~3 µM
- IC50 (HepG2 cells [3]; [8]): < 5 µM
- ITDRFCETSA of NAMPT in cell lysate versus intact cells (NAMPT [4]; 62 °C, lysate value relative to intact cells): approximately 100 fold
- CETSA target binding of NAMPT in intact cell (NAMPT [4]): directly bound with NAMPT
- change in IC50 versus wild-type NAMPT, H191A (NAMPT H191A mutant): no change
- IC50 (NAMPT H191A mutant): 0.0253 ± 0.00236 µM
- CETSA melting curve shift of NAMPT in cell lysate (NAMPT [5]): obvious right shifts
- IC50 (A549 cells): < 5 µM
- IC50 (NAMPT [6]; [9]): 0.0217 µM
- IC50 (NAMPT [6]; [10]): 0.0246 ± 0.00265 µM
- IC50 (HCT116 cells): < 5 µM
- change in IC50/potency versus wild-type NAMPT, A244S (NAMPT A244S mutant): 2 to 3 fold
- IC50 (NAMPT A244S mutant): 0.0361 ± 0.00411 µM
- IC50 (Huh7-C cells): 0.308 ± 0.0322 µM
- change in IC50/potency versus wild-type NAMPT, I309Y (NAMPT I309Y mutant): 2 to 3 fold
- IC50 (NAMPT I309Y mutant): 0.0583 ± 0.0023 µM

Compound: O=S(=O)(c1ccc(NC(=S)NCc2cccnc2)cc1)N1CCN(Cc2ccc(C(F)(F)F)cc2)CC1 [MS34]
- IC50 (HepG2 cells [2]; Homo sapiens, HepG2, 48 h): 0.615 ± 0.0424 µM
- IC50 (HepG2 cells [3]; [7]): ~3 µM
- IC50 (HepG2 cells [3]; [8]): < 5 µM
- CETSA target binding of NAMPT in intact cell (NAMPT [4]): directly bound with NAMPT
- change in IC50 versus wild-type NAMPT, H191A (NAMPT H191A mutant): no change
- IC50 (NAMPT H191A mutant): 0.0252 ± 0.00242 µM
- CETSA melting curve shift of NAMPT in cell lysate (NAMPT [5]): obvious right shifts
- IC50 (A549 cells): < 5 µM
- IC50 (NAMPT [6]; [9]): 0.0237 ± 0.0078 µM
- IC50 (NAMPT [6]; [10]): 0.0248 ± 0.00187 µM
- IC50 (HCT116 cells): < 5 µM
- change in IC50/potency versus wild-type NAMPT, A244S (NAMPT A244S mutant): 2 to 3 fold
- IC50 (NAMPT A244S mutant): 0.0377 ± 0.0019 µM
- IC50 (Huh7-C cells): 0.514 ± 0.0833 µM
- change in IC50/potency versus wild-type NAMPT, I309Y (NAMPT I309Y mutant): 2 to 3 fold
- IC50 (NAMPT I309Y mutant): 0.0576 ± 0.00371 µM

Compound: O=S(=O)(c1ccc(NC(=S)NCc2ccncc2)cc1)N1CCCCC1 [compound 733, reference compound]
- effect on cellular NAD level (in words) (NAD level of HepG2 cells): did not show any effect
- inhibition on NAMPT activity (in words) (NAMPT [6]): no inhibition

From PMC4603696, “Discovery and characterization of novel small-molecule inhibitors targeting nicotinamide phosphoribosyltransferase” (Scientific Reports, 2015)
